The melting point is the temperature, or range, at which the solid turns liquid.

The results in this text go back to patent US8183234B2, “Tricyclic guanidine derivatives as sodium-proton exchange inhibitors” (Piramal Life Sciences Limited, priority 2004, dated 2012).

Where a name gives a salt, the structure may show the parent alone.

In turn, `CS(=O)(=O)O.CS(=O)(=O)O.Cc1cc(C(=O)NC(=N)N)cc2c1Oc1c(Cl)cc(NC(=O)CNC3CCCCC3)cc1CS2(=O)=O` [Example 139, N-(4-Chloro-8-guanidinocarbonyl-6-methyl-10,10-dioxo-10,11-dihydro-5-oxa-10lambda*6*-thia-dibenzo[a,d]cyclohepten-2-yl)-2-cyclohexylamino-acetamide dimesylate] displayed a melting point of 194 to 196 °C.
Next, `CS(=O)(=O)O.CS(=O)(=O)O.Cc1cc(C(=O)NC(=N)N)cc2c1Oc1c(Cl)cc(NC(=O)CN3CCN(c4cccc(C(F)(F)F)c4)CC3)cc1CS2(=O)=O` [Example 145, N-(4-Chloro-8-guanidinocarbonyl-6-methyl-10,10-dioxo-10,11-dihydro-5-oxa-10lambda*6*-thia-dibenzo[a,d]cyclohepten-2-yl)-2-[4-(3-trifluoromethyl-phenyl)-piperazin-1-yl]-acetamide dimesylate]: 222 °C.
Compound `CS(=O)(=O)O.CS(=O)(=O)O.CS(=O)(=O)O.Cc1cc(C(=O)NC(=N)N)cc2c1Oc1c(Cl)cc(N(CCN3CCCCC3)C(=O)C3CC3)cc1CS2(=O)=O` [Example 95, Cyclopropanecarboxylic acid (4-chloro-8-guanidinocarbonyl-6-methyl-10,10-dioxo-10,11-dihydro-5-oxa-10lambda*6*-thia-dibenzo[a,d]cycloheptene-2-yl)-(2-piperidin-1-yl-ethyl)-amide trimesylate] returned a melting point of 276 °C.
Take `CS(=O)(=O)O.CS(=O)(=O)O.Cc1cc(C(=O)NC(=N)N)cc2c1Oc1c(Cl)cc(N(CCN3CCCC3)C(=O)OCC(C)C)cc1CS2(=O)=O` [Example 74, (4-Chloro-8-guanidinocarbonyl-6-methyl-10,10-dioxo-10,11-dihydro-5-oxa-10lambda*6*-thia-dibenzo[a,d]cycloheptene-2-yl)-(2-pyrrolidin-1-yl-ethyl)-carbamic acid isobutylester dimesylate]: the melting point was 198 to 200 °C.
Next, `CS(=O)(=O)O.CS(=O)(=O)O.Cc1cc(C(=O)NC(=N)N)cc2c1Oc1c(Cl)cc(NCc3cccnc3)cc1CS2(=O)=O` [Example 165, N-{4-Chloro-6-methyl-10,10-dioxo-2-[(pyridin-3-ylmethyl)-amino]-10,11-dihydro-5-oxa-10lambda*6*-thia-dibenzo[a,d]cycloheptene-8-carbonyl}-guanidine dimesylate]: 238 °C; `CS(=O)(=O)O.CS(=O)(=O)O.Cc1cc(C(=O)NC(=N)N)cc2c1Oc1c(Cl)cc(N3CCN(CC4CC4)CC3)cc1CS2(=O)=O` [Example 123, N-[4-Chloro-2-(4-cyclopropylmethyl-piperazin-1-yl)-6-methyl-10,10-dioxo-10,11-dihydro-5-oxa-10lambda*6*-thia-dibenzo[a,d]cycloheptene-8-carbonyl]-guanidine dimesylate]: 282 to 287 °C; `CS(=O)(=O)O.CS(=O)(=O)O.CS(=O)(=O)O.Cc1cc(C(=O)NC(=N)N)cc2c1Oc1c(Cl)cc(NCCN3CCN(C)CC3)cc1CS2(=O)=O` [Example 62, N-{4-Chloro-6-methyl-2-[2-(4-methylpiperazin-1-yl)-ethylamino]-10,10-dioxo-10,11-dihydro-5-oxa-10lambda*6*-thia-dibenzo[a,d]cycloheptene-8-carbonyl}-guanidine trimesylate]: 184 to 186 °C.
`CNCC(=O)Nc1cc(Cl)c2c(c1)CS(=O)(=O)c1cc(C(=O)NC(=N)N)cc(C)c1O2.CS(=O)(=O)O.CS(=O)(=O)O` [Example 146, N-(4-Chloro-8-guanidinocarbonyl-6-methyl-10,10-dioxo-10,11-dihydro-5-oxa-10lambda*6*-thia-dibenzo[a,d]cyclohepten-2-yl)-2-methylamino-acetamide dimesylate] showed a melting point of 188 to 190 °C.
The compound `COc1ccccc1CNCCNc1cc(Cl)c2c(c1)CS(=O)(=O)c1cc(C(=O)NC(=N)N)cc(C)c1O2.CS(=O)(=O)O.CS(=O)(=O)O` [Example 90, N-{4-Chloro-2-[2-(2-methoxy-benzylamino)-ethylamino]-6-methyl-10,10-dioxo-10,11-dihydro-5-oxa-10lambda*6*-thia-dibenzo[a,d]cycloheptene-8-carbonyl}-guanidine dimesylate] returned a melting point of 224 to 225 °C.
Next, `CS(=O)(=O)O.CS(=O)(=O)O.Cc1cc(C(=O)NC(=N)N)cc2c1Oc1c(Cl)cc(NCCNCc3cccs3)cc1CS2(=O)=O` [Example 86, N-(4-Chloro-6-methyl-10,10-dioxo-2-{2-[(thiophen-2-ylmethyl)-amino]-ethylamino}-10,11-dihydro-5-oxa-10lambda*6*thia-dibenzo[a,d]cycloheptene-8-carbonyl)-guanidine dimesylate]: 243 to 245 °C; `CS(=O)(=O)O.CS(=O)(=O)O.Cc1cc(C(=O)NC(=N)N)cc2c1Oc1c(Cl)cc(NC(=O)CN(C)C)cc1CS2(=O)=O` [Example 142, N-(4-Chloro-8-guanidinocarbonyl-6-methyl-10,10-dioxo-10,11-dihydro-5-oxa-10lambda*6*-thia-dibenzo[a,d]cyclohepten-2-yl)-2-dimethylamino-acetamide dimesylate]: 190 to 191 °C; `CS(=O)(=O)O.CS(=O)(=O)O.Cc1cc(C(=O)NC(=N)N)cc2c1Oc1c(N)cccc1CS2(=O)=O` [Example 159, N-[4-Amino-6-methyl-10,10-dioxo-10,11-dihydro-5-oxa-10lambda*6*-thia-dibenzo[a,d]cycloheptene-8-carbonyl)-guanidine dimesylate]: 255 to 257 °C.
Next, `CS(=O)(=O)O.CS(=O)(=O)O.Cc1cc(C(=O)NC(=N)N)cc2c1Oc1c(Cl)cc(NC(=O)CNC(C)C)cc1CS2(=O)=O` [Example 141, N-(4-Chloro-8-guanidinocarbonyl-6-methyl-10,10-dioxo-10,11-dihydro-5-oxa-10lambda*6*-thia-dibenzo[a,d]cyclohepten-2-yl)-2-isopropylamino-acetamide dimesylate]: 192 to 194 °C.
`CS(=O)(=O)O.CS(=O)(=O)O.Cc1cc(C(=O)NC(=N)N)cc2c1Oc1c(Cl)cc(NC(=O)CNC3CC3)cc1CS2(=O)=O` [Example 138, N-(4-Chloro-8-guanidinocarbonyl-6-methyl-10,10-dioxo-10,11-dihydro-5-oxa-10lambda*6*-thia-dibenzo[a,d]cyclohepten-2-yl)-2-cyclopropylamino-acetamide dimesylate] gave a melting point of 188 to 190 °C.
Next, `CS(=O)(=O)O.N=C(N)NC(=O)c1ccc2c(c1)S(=O)(=O)Cc1cc(Cl)ccc1O2` [Example 3, N-(2-Chloro-10,10-dioxo-10,11-dihydro-5-oxa-10lambda*6*-thia-dibenzo[a,d]cycloheptene-8-carbonyl)-guanidine, methanesulfonic acid salt]: 280 to 282 °C.
Next, `CS(=O)(=O)O.CS(=O)(=O)O.Cc1cc(C(=O)NC(=N)N)cc2c1Oc1c(Cl)cc(N3CCN(C4CCC4)CC3)cc1CS2(=O)=O` [Example 129, N-[4-Chloro-2-(4-cyclobutyl-piperazin-1-yl)-6-methyl-10,10-dioxo-10,11-dihydro-5-oxa-10lambda*6*-thia-dibenzo[a,d]cycloheptene-8-carbonyl]-guanidine dimesylate]: 275 to 277 °C; `CS(=O)(=O)O.CS(=O)(=O)O.CS(=O)(=O)O.Cc1cc(C(=O)NC(=N)N)cc2c1Oc1c(Cl)cc(NCCN3CCN(CCO)CC3)cc1CS2(=O)=O` [Example 70, N-(4-Chloro-2-{2-[4-(2-hydroxy-ethyl)-piperazin-1-yl]-ethylamino}-6-methyl-10,10-dioxo-10,11-dihydro-5-oxa-10lambda*6*-thia-dibenzo{a,d}cycloheptene-8-carbonyl)-guanidine trimesylate]: 218 to 220 °C; `CCN(CCN1CCCC1)c1cc(Cl)c2c(c1)CS(=O)(=O)c1cc(C(=O)N=C(N)N)cc(C)c1O2` (as salt: mesylate) [Example 73, N-{4-Chloro-2-[ethyl-(2-pyrrolidin-1-yl-ethyl)-amino]-6-methyl-10,10-dioxo-10,11-dihydro-5-oxa-10lambda*6*-thia-dibenzo[a,d]cycloheptene-8-carbonyl}-guanidine dimesylate]: 258 to 260 °C.
Next, `CS(=O)(=O)O.CS(=O)(=O)O.Cc1cc(C(=O)NC(=N)N)cc2c1Oc1c(Cl)cc(NC(=O)CNC3CCCC3)cc1CS2(=O)=O` [Example 140, N-(4-Chloro-8-guanidinocarbonyl-6-methyl-10,10-dioxo-10,11-dihydro-5-oxa-10lambda*6*-thia-dibenzo[a,d]cyclohepten-2-yl)-2-cyclopentylamino-acetamide dimesylate]: 190 to 192 °C.
The compound `CC(C)c1cccc2c1Oc1ccc(C(=O)NC(=N)N)cc1S(=O)(=O)C2.CS(=O)(=O)O` [Example 8, N-(4-Isopropyl-10,10-dioxo-10,11-dihydro-5-oxa-10lambda*6*-thia-dibenzo[a,d]cycloheptene-8-carbonyl)-guanidine, methanesulfonic acid salt] returned a melting point of 220 to 222 °C.
Next, `COCC(=O)N(CCN1CCOCC1)c1cc(Cl)c2c(c1)CS(=O)(=O)c1cc(C(=O)NC(=N)N)cc(C)c1O2.CS(=O)(=O)O.CS(=O)(=O)O` [Example 69, N-(4-Chloro-8-guanidinocarbonyl-6-methyl-10,10-dioxo-10,11-dihydro-5-oxa-10lambda*6*-thia-dibenzo[a,d]cyclohepten-2-yl)-2-methoxy-N-(2-morpholin-4-yl-ethyl)-acetamide dimesylate]: 168 to 169 °C.
